Data on two sequences can be found in publication PMC3759991 (Clinical cancer research : an official journal of the …, 2012).

By IC50 is commonly meant the concentration needed to halve the response being measured. A lower IC50 goes with greater potency.

The target in one experiment is HLA-A*0301 (Homo sapiens, UniProt P04439). Nature of the experiment: competitive MHC allele binding assay, A*0301.
A further experiment concerns the target HLA-A*1101 (Homo sapiens, UniProt P04439, A114D/D185E/E176A/F33Y/L180Q/S129P/T187R). Nature of the experiment: competitive MHC allele binding assay, A*1101.
A further experiment addresses HLA-A*3001 (Homo sapiens, UniProt P04439, D140H/D185E/E176W/F33S/G80R/H175R/K168Q/R138E/R41S). Nature of the experiment: competitive MHC allele binding assay, A*3001.
The target in the next experiment is HLA-A*3101 (Homo sapiens, UniProt P04439, A270S/D185E/E176V/E277Q/F33T/G231S/G80R/H175R/I121M/I218V/I322F/K168Q/L300P/L318F/M331R/P217A/Q94H/R138Q/T323A/T345S/T97I/V358M). Nature of the experiment: competitive MHC allele binding assay, A*3101.
The target of the next experiment is HLA-A*3301 (Homo sapiens, UniProt P04439, A270S/D185E/E176V/E277Q/E87N/F33T/G231S/H175R/I121M/I218V/I322F/K168Q/K210R/L300P/L318F/M331R/P217A/Q86R/Q94H/R138Q/T323A/T345S/T97I/V358M/Y195H). Nature of the experiment: competitive MHC allele binding assay, A*3301.
The next experiment has as its target HLA-A*6801 (Homo sapiens, UniProt P04439, A269V/D185E/E176V/E277Q/E87N/F33Y/G231S/I121M/I166T/I218V/L180W/L300P/L318F/N151K/P208A/P217A/Q86R/R169H/T345S). Nature of the experiment: competitive MHC allele binding assay, A*6801.

Where no end group is shown, it is not given here.

Take EVYEGVWKK [E225K-B WT]: the IC50 on HLA-A*0301 is 1.07 µM; at HLA-A*1101, 0.063 µM; on HLA-A*3001, over 70 µM; on HLA-A*3101, over 70 µM; at HLA-A*3301, 0.06 µM; on HLA-A*6801 it was 0.01 µM.

As for KLGGGQYGK [E255K-A], the half-inhibitory concentration (IC50) was 0.208 µM at HLA-A*0301; 1.07 µM on HLA-A*1101; 27.8 µM at HLA-A*3001; 31.8 µM on HLA-A*3101; over 70 µM at HLA-A*3301; 57.1 µM at HLA-A*6801.
